Reference: US10702568B2, “Compositions containing silymarin and sulfoalkyl ether cyclodextrin and methods of using the same” (UNIVERSITY OF KANSAS, priority 2015, dated 2020)

Key:
[1] = Mutual phase solubility study of Silymarin-CAPTISOL® complex (method A, method B); format: physicochemical
Procedure: Two methods, method A and method B, were used to prepare the silymarin-CAPTISOL® complexes and the phase solubility of the various components in the complexes were measured and compared. The silymarin extract was obtained from Indena® (Indena Code: 9065110).
In method A, the Silymarin-CAPTISOL® complex was prepared through a hot extraction method. […] The filtrates were analyzed using HPLC for Taxifolin, Silychristin, Silydianin, Silybin A, Silybin B, Isosilybin A and Isosilybin B after appropriate dilution.
In method B, the Silymarin-CAPTISOL® complex was prepared by combining the CAPTISOL® and silymarin at ambient temperature: 120 mg of the extract was incorporated in 0 10, 20, 40, 60, 80 and 100 mM concentrations of CAPTISOL® solution in water. These samples were shook at room temperature for 3 days. At equilibrium, samples were centrifuged at 10,000 RPM and filtered using Millipore (0.22 μm) syringe filter. The filtrates were analyzed using HPLC for Taxifolin, Silychristin, Silydianin, Silybin A, Silybin B, Isosilybin A and Isosilybin B after appropriate dilution.
The solubility of the Silymarin-CAPTISOL® complexes prepared using method A and method B were measured.

[2] = Log D of silymarin components (octanol/buffer, HPLC); format: physicochemical; conditions: octanol/universal buffer pH 7.4, 16 h shaking at room temperature; read-out: Log D (7.4 pH)
Procedure: Silymarin components including taxifolin, silydianin, silychristin, silybin A, silybin B, isosilybin A, and isosilybin B were tested for their solubility in water and also for their Log D value. The silymarin extract was obtained from Indena® (Indena Code: 9065110). The HPLC system consisted of Waters system equipped with performance PLUS inline degasser along dual λ absorbance detector set at 288 nm. The chromatographic separation of silymarin constituents was achieved on a Symmetry Shield RP18 column (150×4.6 mm, 5 μm); which was maintained at ambient room temperature conditions. The binary mobile phase system consisted of reservoir A (methanol: 10 mM ammonium acetate pH 5 [65:35 v/v]) and reservoir B (10 mM ammonium acetate, pH 5) were run as per gradient program (0-1.9 min: 25% A and 75% B; 2.0-14.9 min: 80% A and 20% B and 15-37.9 min: 80% A and 20% B and 38-40 min: 25% A and 75% B). The flow rate was 1 mL/min throughout the analytical run.
To determine the Log D of silymarin components, the silymarin extract (2 mg) was dissolved in 100% DMSO and then used for the experiment. Different buffers between pH ranges of 1.0 to 12 were prepared by using universal buffer stock containing 25 mM hydrochloric acid, 25 mM citric acid, 25 mM phosphoric acid, 30 mM boric acid and 20 mM sodium chloride. About 45 mL of universal buffer was titrated with Sodium hydroxide (5M) to obtain desired pH. A 10 μL of silymarin stock solution was spiked into Eppendorf tube containing 500 μL each of a buffer and presaturated octanol. This mixture was vortexed for 5 minutes and kept for shaking at room temperature. After 16 h, the mixture was centrifuged at 10,000 RPM for 30 minutes. After centrifugation buffer and octanol phases were separated, both phases were diluted with acetonitrile (1:1) and subject to HPLC analysis for quantitation of individual components of silymarin. The Log D values of each compound at a pH was determined by Log D (pH)=Log [Organic (peak area)/Aqueous (peak area)].

number of fold increase in solubility ([1]; CAPTISOL® 10 mM, Method A (hot extraction 70-75° C., 60 minutes)): 1.95 fold | number of fold increase in solubility ([1]; CAPTISOL® 10 mM, Method B (ambient temperature, 3 days)): 1.97 fold | number of fold increase in solubility ([1]; CAPTISOL® 20 mM, Method A (hot extraction 70-75° C., 60 minutes)): 3.32 fold | number of fold increase in solubility ([1]; CAPTISOL® 20 mM, Method B (ambient temperature, 3 days)): 3.06 fold | number of fold increase in solubility ([1]; CAPTISOL® 40 mM, Method A (hot extraction 70-75° C., 60 minutes)): 3.54 fold | number of fold increase in solubility ([1]; CAPTISOL® 40 mM, Method B (ambient temperature, 3 days)): 3.39 fold | number of fold increase in solubility ([1]; CAPTISOL® 60 mM, Method A (hot extraction 70-75° C., 60 minutes)): 4.26 fold | number of fold increase in solubility ([1]; CAPTISOL® 60 mM, Method B (ambient temperature, 3 days)): 3.48 fold | number of fold increase in solubility ([1]; CAPTISOL® 80 mM, Method A (hot extraction 70-75° C., 60 minutes)): 4.51 fold | number of fold increase in solubility ([1]; CAPTISOL® 80 mM, Method B (ambient temperature, 3 days)): 3.47 fold | number of fold increase in solubility ([1]; CAPTISOL® 100 mM, Method A (hot extraction 70-75° C., 60 minutes)): 4.77 fold | number of fold increase in solubility ([1]; CAPTISOL® 100 mM, Method B (ambient temperature, 3 days)): 3.72 fold | logD at 16 h [2]: 1.35
Compound: O=C1c2c(O)cc(O)cc2O[C@H](c2ccc(O)c(O)c2)[C@H]1O [Taxifolin]
